According to US11272709B2, “Amidine substituted benzoyl derivatives useful as herbicides” (Syngenta Participations AG, priority 2018, dated 2022):

Key:
Format in all cases: in vivo
[1] = Comparative experiment, compound 1.049 versus Compound C1, (%) phytotoxicity observed (Table B2); details: rate 31 g/ha; for (%) phytotoxicity observed, POST Application ECHCG / (%) phytotoxicity observed, PRE Application ECHCG: Echinochloa crus-galli (ECHCG); for (%) phytotoxicity observed, POST Application SETFA / (%) phytotoxicity observed, PRE Application SETFA: Setaria faberi (SETFA)
Procedure: Seeds of a variety of test species are sown in standard soil in pots (Lolium perenne (LOLPE), Amaranthus retoflexus (AMARE), Abutilon theophrasti (ABUTH), Setaria faberi (SETFA), Echinochloa crus-galli (ECHCG), Ipomoea hederacea (IPOHE)). After cultivation for one day (pre-emergence) or after 8 days cultivation (post-emergence) under controlled conditions in a glasshouse (at 24/16° C., day/night; 14 hours light; 65% humidity), the plants are sprayed with an aqueous spray solution derived from the formulation of the technical active ingredient in acetone/water (50:50) solution containing 0.5% Tween 20 (polyoxyethelyene sorbitan monolaurate, CAS RN 9005-64-5). Compounds are applied at […] unless otherwise indicated. The test plants are then grown in a glasshouse under controlled conditions in a glasshouse (at 24/16° C., day/night; 14 hours light; 65% humidity) and watered twice daily. After 13 days for pre and post-emergence, the test is evaluated for the percentage damage caused to the plant. The biological activities are shown in the following table on a five point scale (5=80-100%; 4=60-79%; 3=40-59%; 2=20-39%; 1=0-19%). [table]

[2] = tested on: Ipomoea hederacea (IPOHE); test: Post-emergence herbicidal glasshouse test, Ipomoea hederacea (IPOHE); details: 500 g/h, evaluated after 13 days
In short: (§1)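 Plants sprayed 1 day (pre-emergence) or 8 days (post-emergence) after sowing, at 500 g/h unless indicated, in acetone/water (50:50) with 0.5% Tween 20. Glasshouse 24/16 °C, 14 h light, 65% humidity. Damage scored at 13 days on a five-point scale (5=80-100% to 1=0-19%).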

[3] = tested on: Echinochloa crus-galli (ECHCG); test: Post-emergence herbicidal glasshouse test, Echinochloa crus-galli (ECHCG); details: 500 g/h, evaluated after 13 days
In short: as §1

[4] = tested on: Abutilon theophrasti (ABUTH); test: Post-emergence herbicidal glasshouse test, Abutilon theophrasti (ABUTH); details: 500 g/h, evaluated after 13 days
In short: as §1

[5] = tested on: Amaranthus retoflexus (AMARE); test: Post-emergence herbicidal glasshouse test, Amaranthus retoflexus (AMARE); details: 500 g/h, evaluated after 13 days
In short: as §1

[6] = tested on: Abutilon theophrasti (ABUTH); test: Pre-emergence herbicidal glasshouse test, Abutilon theophrasti (ABUTH); details: 500 g/h, evaluated after 13 days
In short: as §1

[7] = tested on: Ipomoea hederacea (IPOHE); test: Pre-emergence herbicidal glasshouse test, Ipomoea hederacea (IPOHE); details: 500 g/h, evaluated after 13 days
In short: as §1

Setaria faberi (SETFA) [8] = test: Pre-emergence herbicidal glasshouse test, Setaria faberi (SETFA); details: 500 g/h, evaluated after 13 days
In short: as §1

[9] = tested on: Echinochloa crus-galli (ECHCG); test: Pre-emergence herbicidal glasshouse test, Echinochloa crus-galli (ECHCG); details: 500 g/h, evaluated after 13 days
In short: as §1

[10] = tested on: Amaranthus retoflexus (AMARE); test: Pre-emergence herbicidal glasshouse test, Amaranthus retoflexus (AMARE); details: 500 g/h, evaluated after 13 days
In short: as §1

Setaria faberi (SETFA) [11] = test: Post-emergence herbicidal glasshouse test, Setaria faberi (SETFA); details: 500 g/h, evaluated after 13 days
In short: as §1

Row | Compound | (%) phytotoxicity observed, POST Application ECHCG [1] [%] | (%) phytotoxicity observed, PRE Application ECHCG [1] [%] | (%) phytotoxicity observed, POST Application SETFA [1] [%] | (%) phytotoxicity observed, PRE Application SETFA [1] [%] | POST Application IPOHE, percentage damage (five point scale) [2] | POST Application ECHCG, percentage damage (five point scale) [3] | POST Application ABUTH, percentage damage (five point scale) [4] | POST Application AMARE, percentage damage (five point scale) [5] | PRE Application ABUTH, percentage damage (five point scale) [6] | PRE Application IPOHE, percentage damage (five point scale) [7] | PRE Application SETFA, percentage damage (five point scale) (Setaria faberi (SETFA) [8]) | PRE Application ECHCG, percentage damage (five point scale) [9] | PRE Application AMARE, percentage damage (five point scale) [10] | POST Application SETFA, percentage damage (five point scale) (Setaria faberi (SETFA) [11])
1 | Cn1nnnc1NC(=O)c1ccc(C(F)(F)F)c(N)c1Cl [Cl] | 0 | 0 | 20 | 0 |  |  |  |  |  |  |  |  |  | 
2 | CN(C)C=Nc1c(C(F)(F)F)ccc(C(=O)Nc2nnnn2C)c1Cl [Compound 1.049] | 90 | 90 | 90 | 90 | 5 (5=80-100%) | 5 (5=80-100%) | 5 (5=80-100%) | 5 (5=80-100%) | 5 (5=80-100%) | 5 (5=80-100%) | 5 (5=80-100%) | 5 (5=80-100%) | 5 (5=80-100%) | 5 (5=80-100%)
3 | CN(C=Nc1c(C(F)(F)F)ccc(C(=O)C2=C(O)CCCC2=O)c1Cl)CC(F)(F)F [Compound 3.130] |  |  |  |  | 4 (4=60-79%) | 5 (5=80-100%) | 5 (5=80-100%) | 5 (5=80-100%) | 5 (5=80-100%) | 5 (5=80-100%) | 5 (5=80-100%) | 5 (5=80-100%) | 5 (5=80-100%) | 5 (5=80-100%)
4 | CON=C(C)N(C)Cc1c(C(F)(F)F)ccc(C(=O)Nc2nnnn2C)c1Cl [Compound 4.014] |  |  |  |  | 5 (5=80-100%) | 5 (5=80-100%) | 5 (5=80-100%) | 5 (5=80-100%) | 5 (5=80-100%) | 5 (5=80-100%) | 5 (5=80-100%) | 5 (5=80-100%) | 5 (5=80-100%) | 5 (5=80-100%)
5 | CON=C(C)N(C)Cc1c(S(C)(=O)=O)ccc(C(=O)Nc2nnnn2C)c1Cl [Compound 4.016, 2-chloro-3-[[[N-methoxy-C-methyl-carbonimidoyl]-methyl-amino]methyl]-4-methylsulfonyl-N-(1-methyltetrazol-5-yl)benzamide] |  |  |  |  | 4 (4=60-79%) | 5 (5=80-100%) | 3 (3=40-59%) | 4 (4=60-79%) | 5 (5=80-100%) | 5 (5=80-100%) | 5 (5=80-100%) | 5 (5=80-100%) | 5 (5=80-100%) | 5 (5=80-100%)
6 | CON=C(C)N(C)Cc1c(S(C)(=O)=O)ccc(C(=O)Nc2nnc(C)o2)c1Cl [Compound 5.016] |  |  |  |  | 4 (4=60-79%) | 5 (5=80-100%) | 3 (3=40-59%) | 4 (4=60-79%) | 5 (5=80-100%) | 5 (5=80-100%) | 5 (5=80-100%) | 5 (5=80-100%) | 5 (5=80-100%) | 5 (5=80-100%)
7 | CCCn1nnnc1NC(=O)c1ccc(S(C)(=O)=O)c(N=CN(C)C)c1C [Compound 7.002] |  |  |  |  | 4 (4=60-79%) | 5 (5=80-100%) | 5 (5=80-100%) | 5 (5=80-100%) | 5 (5=80-100%) | 5 (5=80-100%) | 5 (5=80-100%) | 5 (5=80-100%) | 5 (5=80-100%) | 5 (5=80-100%)
8 | COCCn1nnnc1NC(=O)c1ccc(S(C)(=O)=O)c(N=CN(C)C)c1C [Compound 7.003] |  |  |  |  | 5 (5=80-100%) | 5 (5=80-100%) | 5 (5=80-100%) | 5 (5=80-100%) | 5 (5=80-100%) | 5 (5=80-100%) | 5 (5=80-100%) | 5 (5=80-100%) | 5 (5=80-100%) | 5 (5=80-100%)
